Residue numbers refer to the chain shown, from its start.
Legend:
[1] = Total brain to plasma partition coefficient, Kp in cannulated Sprague-Dawley rat at 0.2 mg/kg, iv administered via jugular vein as cassette dose measured after 0.25 hrs by LC-MS/MS analysis; assay type: ADME, organism-based; conditions: Sprague-Dawley, brain and plasma
[2] = target: T1, Muscarinic acetylcholine receptor M1 (Rattus norvegicus, UniProt P08482); experiment: Agonist activity at rat M1 receptor expressed in CHO cells assessed as increase in calcium mobilization measured after 2.5 mins by Fluo-4-AM dye based assay; assay type: functional, cell-based
T1 sequence (P08482 whole entry): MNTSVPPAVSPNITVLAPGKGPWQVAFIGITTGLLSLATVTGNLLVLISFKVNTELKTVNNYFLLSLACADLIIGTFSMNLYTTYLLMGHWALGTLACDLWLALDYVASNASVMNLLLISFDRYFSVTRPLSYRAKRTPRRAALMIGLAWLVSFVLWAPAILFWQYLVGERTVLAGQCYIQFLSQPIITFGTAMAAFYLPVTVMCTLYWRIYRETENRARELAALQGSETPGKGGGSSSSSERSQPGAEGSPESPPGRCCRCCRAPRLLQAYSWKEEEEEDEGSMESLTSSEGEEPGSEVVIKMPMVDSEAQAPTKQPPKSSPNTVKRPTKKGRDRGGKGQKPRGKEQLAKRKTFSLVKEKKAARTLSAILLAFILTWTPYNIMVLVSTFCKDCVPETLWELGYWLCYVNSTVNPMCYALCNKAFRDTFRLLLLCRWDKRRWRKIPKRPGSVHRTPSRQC

P-gp [3] = experiment: Substrate activity at P-gp (unknown origin) assessed as apparent permeability; assay type: ADME; conditions: human, not told
Mus musculus = experiment: Cholinergic toxicity in C57BL/6J mouse assessed as induction of seizure activity at 100 mg/kg, ip measured within 30 mins; assay type: organism-based; conditions: in vivo, 0.5 h
[4] = Protein binding in rat brain assessed as unbound fraction; assay type: ADME, tissue-based
[5] = target: T2, Muscarinic acetylcholine receptor M2 (Homo sapiens, UniProt P08172); experiment: Positive allosteric modulation of human M2 receptor expressed in CHO cells co-expressing Gqi5 assessed as increase in acetylcholine-induced calcium mobilization pretreated for 2.5 mins followed by acetylcholine addition and measured after 1 min by Fluo-4-AM dye based assay; assay type: functional, cell-based
T2 sequence (P08172 whole entry): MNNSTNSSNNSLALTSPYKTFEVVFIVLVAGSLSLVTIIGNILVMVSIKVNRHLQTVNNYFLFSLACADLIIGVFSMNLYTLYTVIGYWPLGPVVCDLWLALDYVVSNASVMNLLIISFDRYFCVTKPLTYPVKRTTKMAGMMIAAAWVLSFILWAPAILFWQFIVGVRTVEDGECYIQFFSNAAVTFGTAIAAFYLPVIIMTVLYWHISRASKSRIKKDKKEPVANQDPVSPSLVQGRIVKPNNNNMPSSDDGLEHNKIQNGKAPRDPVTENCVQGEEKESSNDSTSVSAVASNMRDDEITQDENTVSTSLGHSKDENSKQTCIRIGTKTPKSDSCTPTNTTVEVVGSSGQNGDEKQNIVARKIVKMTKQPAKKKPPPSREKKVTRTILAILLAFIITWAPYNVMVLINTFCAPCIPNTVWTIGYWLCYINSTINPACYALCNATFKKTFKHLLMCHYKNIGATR

[6] = Ratio of unbound brain to plasma concentration in cannulated Sprague-Dawley rat at 0.2 mg/kg, iv administered via jugular vein as cassette dose measured after 0.25 hrs by LC-MS/MS analysis; assay type: ADME, organism-based; conditions: Sprague-Dawley, brain and plasma, read-out: K(p,uu,brain)
P-gp [7] = experiment: Substrate activity at P-gp (unknown origin) assessed as efflux ratio of permeability; assay type: ADME; conditions: human, not told
[8] = target: T3, Muscarinic acetylcholine receptor M1 (Homo sapiens, UniProt P11229); experiment: Agonist activity at human M1 receptor expressed in CHO cells assessed as increase in calcium mobilization measured after 2.5 mins by Fluo-4-AM dye based assay; assay type: functional, cell-based
T3 sequence (P11229 whole entry): T1 sequence (P08482 whole entry) with V5A, S254T, S309P, K320R, G337A, V413I

[9] = Total brain to plasma partition coefficient, Kp in C57BL/6J mouse at 100 mg/kg, ip after 1 hr by LC-MS/MS analysis; assay type: ADME, organism-based; conditions: brain and plasma
[10] = target: T4, Muscarinic acetylcholine receptor M5 (Homo sapiens, UniProt P08912); experiment: Positive allosteric modulation of human M5 receptor expressed in CHO cells assessed as increase in acetylcholine-induced calcium mobilization pretreated for 2.5 mins followed by acetylcholine addition and measured after 1 min by Fluo-4-AM dye based assay; assay type: functional, cell-based
T4 sequence (P08912 whole entry): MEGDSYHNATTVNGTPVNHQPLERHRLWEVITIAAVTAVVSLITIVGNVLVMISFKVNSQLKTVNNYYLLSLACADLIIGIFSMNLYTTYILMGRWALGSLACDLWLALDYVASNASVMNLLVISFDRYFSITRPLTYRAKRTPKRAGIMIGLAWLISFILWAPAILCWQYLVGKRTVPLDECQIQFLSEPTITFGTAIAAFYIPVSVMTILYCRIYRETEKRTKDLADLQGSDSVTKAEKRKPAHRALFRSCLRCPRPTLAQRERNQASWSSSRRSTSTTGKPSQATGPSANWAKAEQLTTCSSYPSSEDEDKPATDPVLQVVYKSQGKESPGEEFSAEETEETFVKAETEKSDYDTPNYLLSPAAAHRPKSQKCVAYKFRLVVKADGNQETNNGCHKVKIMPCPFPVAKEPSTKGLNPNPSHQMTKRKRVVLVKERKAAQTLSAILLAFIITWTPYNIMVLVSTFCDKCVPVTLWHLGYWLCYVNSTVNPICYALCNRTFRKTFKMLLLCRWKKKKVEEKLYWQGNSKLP

[11] = Drug level in C57BL/6J mouse brain at 100 mg/kg, ip measured after 1 hr; assay type: ADME, organism-based; conditions: read-out: Drug uptake
[12] = target: T1, Muscarinic acetylcholine receptor M1; experiment: (§1) Positive allosteric modulation of rat M1 receptor expressed in CHO cells assessed as increase in acetylcholine-induced calcium mobilization pretreated for 2.5 mins followed by acetylcholine addition and measured after 1 min by Fluo-4-AM dye based assay; assay type: functional, cell-based; conditions: read-out: EC50
[13] = target: T5, Muscarinic acetylcholine receptor M1 (Rattus norvegicus) (UniProt P08482); experiment: as §1; assay type: functional, cell-based
T5 sequence (whole entry): T1 sequence (P08482 whole entry)

## Cn1cc(-c2ccc(Cc3cc(C(=O)NC4CCOCC4)nc4c3ccn4C)cn2)cn1
[1]
  Kp at 0.25 h: 0.28
[2]; cho, read-out: EC50
  EC50: > 10 µM
[2]; read-out: pEC50 (converted)
  EC50: > 10 µM
P-gp [3]
  Papp: 12 ×10⁻⁶ cm/s
Mus musculus
  Activity: Non-Toxic
[4]
  fraction unbound: 0.08
[5]
  EC50: > 30 µM
[6]
  Kp uu at 0.25 h: 0.32
P-gp [7]
  efflux ratio: 4.5
[8]
  EC50: 324 nM
[9]
  Kp at 1 h: 0.16
[10]
  EC50: > 30 µM
[11]
  concentration at 1 h: 7 µM
[12]
  EC50: 230 nM
[13]
  %max: 93%
  pKb: 4.82

Source: ChEMBL document CHEMBL4229572, “VU6007477, a Novel M1 PAM Based on a Pyrrolo[2,3-b]pyridine Carboxamide Core Devoid of Cholinergic Adverse Events” (ACS Med Chem Lett, 2018)
